The values below come from patent US20220127607A1, “METHODS AND MATERIALS FOR ACTIVATING AN INTERNAL RIBOSOME ENTRY SITE IN EXON 5 OF THE DMD GENE” (RESEARCH INSTITUTE AT NATIONWIDE CHILDREN'S HOSPITAL, priority 2014, published 2022).

Data set [1] deals with Dup2 mice. The data set can be described thus: Evans blue dye (EBD) uptake / membrane protection assay. The conditions noted are these: Dup2 TA, 4 weeks post-injection; agent alone (U7-ACCA 5e11vg IM; PDN 1 mg/kg/day ip); untreated Dup2 14.7±6.6. Format: in vivo, mouse. From the text: FIGS. 4A-4F. Intramuscular delivery of U7-ACCA results in significant N-truncated dystrophin expression in Dup2 mice, restoring localization of dystrophin-associated proteins. […] In wild type BI6 animals (FIG. 4B), the wild type transcript was 14.2% and Del2 transcript was 85.8%. (FIG. 4C) RNA-Seq read depth using a tibialis anterior muscle total RNA library from Dup2 U7-ACCA treated (upper) and Dup2 untreated (lower) mice, mapped to the 5′ region of the mouse Dmd gene (mm9, chrX:80,150,000-81,050,000). […] The protein induced in BI6 males injected with U7-ACCA is of the same size as that expressed in the Dup2 treated animals, confirming the size difference between this protein and the full-length isoform. (C-terminal antibody: PA1-21011,Thermo, Inc). […]
FIGS. 6A-6E. […] EBD-positive fibers were quantified as a percent out of a total of 5,000 fibers counted per animal.
We examined whether expression of the IRES-driven isoform improved muscle integrity and physiology in the Dup2 mouse. Similar to the case in mdx mice, dystrophic changes in Dup2 mice are quantifiable at 4 weeks of age as widespread muscle regeneration characterized by centralized nuclei (Vulin et al., manuscript in press). […] Quantification of the number of EBD positive fiber confirms that expression of the IRES driven isoform results in protection of muscle fibers in these mice (FIG. 6B). […]

For data set [2], the system named is Dup2 mice. As to the kind of experiment: Central nucleation of myofibers in Dup2 mouse muscle. The conditions noted are these: Dup2 TA, 4 weeks post-injection; agent alone (U7-ACCA 5e11vg IM; PDN 1 mg/kg/day ip); untreated Dup2 73.0±1.6. The data set is classed as in vivo.
Protocol: Expression of the IRES-driven isoform improves muscle membrane integrity and protects Dup2 muscle from contraction-induced damage. Dup2 tibialis anterior muscles were treated by intramuscular injection of 5e11vg U7-ACCA alone or with methylprednisolone (PDN: 1 mg/kg/day intraperitoneal) and analyzed at 4 weeks post-injection. […] EBD-positive fibers were quantified as a percent out of a total of 5,000 fibers counted per animal.
For a further data set, the system named is dystrophin. As to the kind of experiment: Dystrophin immunoblot in FibroMyoD cells. The data set is classed as cell-based, human. As to conditions: Dup2 FibroMyoD cells treated with U7-ACCA and 6.4 μM PDN.
The next data set relates to utrophin. The data set can be described thus: Utrophin immunoblot in mouse muscle. The data set is classed as in vivo. The conditions noted are these: Dup2 mice, PDN 1 mg/kg/day treated versus untreated, with or without U7-ACCA. As for the experimental part:
(§1) FIGS. 5A-5F. […] (FIG. 5A) Dual luciferase assay performed on lysates from C2C12 cells transfected with the pRDEF vector carrying the exon 5-6 IRES construct. […] Error bars representate s.d. […] The image intensity for the wild-type lane was lowered to allow identification of bands. MHC=myosin heavy chain (loading control). […] Immunoblot was performed on each muscle in duplicate, and the signals for both dystrophin and α-actinin from the resulting 5 lanes were quantified using ImageJ. […] The signals for both utrophin and α-actinin from the resulting 5 lanes were quantified using ImageJ.
(§2) Furthermore, treatment with the glucocorticoids prednisone and deflazacort are standard treatment for DMD. […] Because utrophin translation may be regulated by corticosteroids and overexpression can compensate for absent dystrophin, we assessed utrophin levels in the same injected muscles (FIG. 5E).

The subject of data set [3] is dystrophin IRES. As to conditions: C2C12 cells, pRDEF exon 5-6 IRES construct, increasing concentrations. On the procedure:
as §1, §2

For data set [4], the system named is Dup2 mice. The data set can be described thus: Loss of force following repetitive eccentric contractions. The conditions noted are these: Dup2 TA, 4 weeks; agent alone. The data set is classed as in vivo, mouse.
Data set [5] relates to dystrophin IRES. The data set can be described thus: Dual luciferase IRES assay in 293K cells. The data set is classed as cell-based.
Source text: FIGS. 12A-12B. […] Error bars represent s.d. […] N=4 animals per group. Error bars represent s.d.
as §2

The subject of data set [6] is Dup2 mice. The data set can be described thus: Grip strength. The data set is classed as in vivo, mouse. The conditions noted are these: 4 weeks, agent alone, untreated Dup2 2.22±0.26, BI6 3.36±0.37.
Protocol: (§3) Dup2 tibialis anterior muscles were treated by intramuscular injection of 5e11vg U7-ACCA alone or with methylprednisolone (PDN: 1 mg/kg/day intraperitoneal) and analyzed at 4 weeks post-injection. […] EBD-positive fibers were quantified as a percent out of a total of 5,000 fibers counted per animal.
(FIG. 17C) Immunostaining of dystrophin on the same samples confirms dystrophin expression and its proper localization at the sarcolemma.
Data set [7] concerns Dup2 mice. The data set can be described thus: Muscle force following tetanic contraction. As to conditions: Dup2 TA, 4 weeks; agent alone; untreated Dup2 170.9±14.3, BI6 274.0±12.1. The data set is classed as in vivo, mouse.
Protocol: as §3
The test system of a further data set is DMD exon 2. The data set can be described thus: RT-PCR of exon 2 skipping in patient-derived FibroMyoD cells. Format: cell-based, human. From the text: FIGS. 3A-3D. Out-of-frame exon-skipping stimulates IRES activity in patient-derived cell lines. (FIG. 3A) Schematic representation of the human DMD exon 1-10 reading frame (blue) and 5′UTR (red). Blue numbers above each exon indicate cDNA positions; red numbers at the base of each exon indicate the amino acid position. The canonical actin binding domain 1 is represented, along with the predicted (via ScanProsite) CH and ABS domains. (FIG. 3B) Schematic representation of exon 2 (SEQ ID NO: 30). The selected targeted sequences are indicated below, affecting either splice acceptor (S.A.), splice donor (S.D.), or exon splice enhancer (E.S.E.) sequences (as predicted using Human Splicing Finder or ESE finder 3.0). (FIG. 3C) Two copies each of U7-C and U7-AL were cloned into the same AAV plasmid, as they were the most efficient in skipping exon 2 (see FIGS. 10A-10B). The resulting construct is referred to as U7-ACCA. RT-PCR results after infection of U7-ACCA vector (1E11 vg) or H2A antisense oligonucleotide (AON H2A) into either wt or duplicated exon 2 FibroMyoD (FM) cells. […]
In considering skipping of exons prior to the exon 5 IRES, only the removal of exon 2 will disrupt the reading frame and result in a premature stop codon (FIG. 3A). […]

“Also recorded” adds a separate entry of the source.

For `C[C@H]1C[C@@H]2[C@H]([C@@H](O)C[C@@]3(C)[C@H]2CC[C@]3(O)C(=O)CO)[C@@]2(C)C=CC(=O)C=C12` [PDN, 6-methyl-prednisolone], the “Evans blue dye (EBD)-positive fibers” value in the data set on Dup2 mice [1] is listed as “No significant difference”. For the same compound, the “Central nucleation (% of myofibers)” value with Dup2 mice [2] is recorded as “No significant difference”. In addition, the dystrophin expression entry in the data set on dystrophin is reported as “An increase in dystrophin expression”. For the same compound, the utrophin levels entry in the data set on utrophin was “no statistically significant difference; also recorded: does not increase expression of utrophin”. Also, the “IRES activity, concentration dependence” value in the data set on dystrophin IRES [3] is recorded as “increases IRES activity in a dose-dependent fashion”. In the data set with Dup2 mice [4], the “Protection from loss of force following repetitive eccentric contractions” value is on record as “No significant difference”. Moreover, the “glucocorticoid activation of IRES” value in the data set with dystrophin IRES [5] is “not seen”. In addition, in the data set on Dup2 mice [6], the “Normalized maximum hindlimb grip strength” value is reported as “No significant difference”. Also, in the data set on Dup2 mice [7], the “Normalized specific force following tetanic contraction” value was “No significant difference”.

With “AON H2A: known antisense oligonucleotide CCAUUUUGUGAAUGUUUUCUUUUGAACAUC (SEQ ID NO: 13), positive control of exon 2 skipping (chemistry not given here)”, the “exon-skipping (RT-PCR, qualitative)” value in the data set with DMD exon 2 (control and duplicated exon 2 patient-derived FibroMyoD, 3 days post AAV infection or AON transfection) is “lower efficiency than U7-mediated skipping”. Besides, in the data set on DMD exon 2 (patient cell lines carrying mutation within exon 1 to 4, AAV 1×10E11 vector genomes), the “transcript lacking exon 2” value is “approximately 90%”.
